Data published in patent publication US5593984A, “Cephalosporin derivatives” (Yuhan Corporation, priority 1992, dated 1997).
In brackets after ≈: the same amount, converted by molar mass.

Columns and labels:
Format in all cases: cell-based
Staph. aureus C-5216 = experiment: MIC by agar dilution, Staph. aureus C-5216; settings: Staphylococcus aureus, C5216, 17 h, Mueller-Hinton agar, read-out: Minimal Inhibitory Concentration (MIC)
Method in brief: (§1)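 Each compound was serially halved and mixed into Mueller-Hinton agar medium. Bacteria (10^6 CFU per ml) were then inoculated by replicator, and growth was assessed after incubation for 17±1 hours at 35°-37° C.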

Ent. aerogenes IFO 12979 = experiment: MIC by agar dilution, Ent. aerogenes IFO 12979; settings: Klebsiella aerogenes, IFO12979, 17 h, Mueller-Hinton agar, read-out: Minimal Inhibitory Concentration (MIC)
Method in brief: as §1

B. subtilis ATCC 6633 = experiment: MIC by agar dilution, B. subtilis ATCC 6633; settings: Bacillus subtilis, ATCC6633, 17 h; B. subtilis ATCC 6633; agar dilution, Mueller-Hinton agar; read-out: Minimal Inhibitory Concentration (MIC)
Method in brief: as §1

E. coli No. 29 = experiment: MIC by agar dilution, E. coli No. 29; settings: Escherichia coli, 17 h; E. coli No. 29; agar dilution, Mueller-Hinton agar; read-out: Minimal Inhibitory Concentration (MIC)
Method in brief: as §1

K. pneumoniae NCTC 9632 = experiment: MIC by agar dilution, K. pneumoniae NCTC 9632; settings: Klebsiella pneumoniae, NCTC9632, 17 h; K. pneumoniae NCTC 9632; agar dilution, Mueller-Hinton agar; read-out: Minimal Inhibitory Concentration (MIC)
Method in brief: as §1

Ent. cloacae IFO 13535 = experiment: MIC by agar dilution, Ent. cloacae IFO 13535; settings: Enterobacter cloacae, IFO13535, 17 h; Ent. cloacae IFO 13535; agar dilution, Mueller-Hinton agar; read-out: Minimal Inhibitory Concentration (MIC)
Method in brief: as §1

Staph. aureus ATCC 6538P = experiment: MIC by agar dilution, Staph. aureus ATCC 6538P; settings: Staphylococcus aureus, ATCC6538P, 17 h; Staph. aureus ATCC 6538P; agar dilution, Mueller-Hinton agar; read-out: Minimal Inhibitory Concentration (MIC)
Method in brief: as §1

E. coli DY-1 = experiment: MIC by agar dilution, E. coli DY-1; settings: Escherichia coli, DY1, 17 h; E. coli DY-1; agar dilution, Mueller-Hinton agar; read-out: Minimal Inhibitory Concentration (MIC)
Method in brief: as §1

[1] = system: Ps. aeruginosa NCTC 10490; experiment: MIC by agar dilution, Ps. aeruginosa NCTC 10490; settings: Pseudomonas aeruginosa, NCTC10490, 17 h, Mueller-Hinton agar, read-out: Minimal Inhibitory Concentration (MIC)
Method in brief: as §1

[2] = system: Ser. marcescens IFO 12648; experiment: MIC by agar dilution, Ser. marcescens IFO 12648; settings: Serratia marcescens, IFO12648, 17 h; Ser. marcescens IFO 12648; agar dilution, Mueller-Hinton agar; read-out: Minimal Inhibitory Concentration (MIC)
Method in brief: as §1

E. coli NIHJ JC-2 = experiment: MIC by agar dilution, E. coli NIHJ JC-2; settings: Escherichia coli, NIHJJC2, 17 h; E. coli NIHJ JC-2; agar dilution, Mueller-Hinton agar; read-out: Minimal Inhibitory Concentration (MIC)
Method in brief: as §1

P. vulgaris NCTC 8313 = experiment: MIC by agar dilution, P. vulgaris NCTC 8313; settings: Proteus vulgaris, NCTC8313, 17 h; P. vulgaris NCTC 8313; agar dilution, Mueller-Hinton agar; read-out: Minimal Inhibitory Concentration (MIC)
Method in brief: as §1

Staph. aureus C-5113 = experiment: MIC by agar dilution, Staph. aureus C-5113; settings: Staphylococcus aureus, C5113, 17 h, Mueller-Hinton agar, read-out: Minimal Inhibitory Concentration (MIC)
Method in brief: as §1

Prov. stuartii IFO 12930 = experiment: MIC by agar dilution, Prov. stuartii IFO 12930; settings: Providencia stuartii, IFO12930, 17 h, Mueller-Hinton agar, read-out: Minimal Inhibitory Concentration (MIC)
Method in brief: as §1

Staph. aureus Smith = experiment: MIC by agar dilution, Staph. aureus Smith; settings: Staphylococcus aureus, 17 h, Mueller-Hinton agar, read-out: Minimal Inhibitory Concentration (MIC)
Method in brief: as §1

M. morganii DY-1 = experiment: MIC by agar dilution, M. morganii DY-1; settings: Morganella morganii, DY1, 17 h; M. morganii DY-1; agar dilution, Mueller-Hinton agar; read-out: Minimal Inhibitory Concentration (MIC)
Method in brief: as §1

[3] = system: Ps. aeruginosa ATCC 10145; experiment: MIC by agar dilution, Ps. aeruginosa ATCC 10145; settings: Pseudomonas aeruginosa, ATCC10145, 17 h, Mueller-Hinton agar, read-out: Minimal Inhibitory Concentration (MIC)
Method in brief: as §1

Staph. aureus C-57 = experiment: MIC by agar dilution, Staph. aureus C-57; settings: Staphylococcus aureus, C57, 17 h, Mueller-Hinton agar, read-out: Minimal Inhibitory Concentration (MIC)
Method in brief: as §1

Ps. aeruginosa DY-2 = experiment: MIC by agar dilution, Ps. aeruginosa DY-2; settings: Pseudomonas aeruginosa, DY2, 17 h; Ps. aeruginosa DY-2; agar dilution, Mueller-Hinton agar; read-out: Minimal Inhibitory Concentration (MIC)
Method in brief: as §1

[4] = system: S. epidermidis ATCC 12228; experiment: MIC by agar dilution, S. epidermidis ATCC 12228; settings: Staphylococcus epidermidis, ATCC12228, 17 h; S. epidermidis ATCC 12228; agar dilution, Mueller-Hinton agar; read-out: Minimal Inhibitory Concentration (MIC)
Method in brief: as §1

MIC (Staph. aureus C-5216) | MIC (Ent. aerogenes IFO 12979) | MIC (B. subtilis ATCC 6633) | MIC (E. coli No. 29) | MIC (K. pneumoniae NCTC 9632) | MIC (Ent. cloacae IFO 13535) | MIC (Staph. aureus ATCC 6538P) | MIC (E. coli DY-1) | MIC [1] | MIC [2] | MIC (E. coli NIHJ JC-2) | MIC (P. vulgaris NCTC 8313) | MIC (Staph. aureus C-5113) | MIC (Prov. stuartii IFO 12930) | MIC (Staph. aureus Smith) | MIC (M. morganii DY-1) | MIC [3] | MIC (Staph. aureus C-57) | MIC (Ps. aeruginosa DY-2) | MIC [4] | SMILES
0.78 µg/mL (≈ 1.39 µM) | ≤ 0.006 µg/mL | 0.1 µg/mL (≈ 0.178 µM) | ≤ 0.006 µg/mL | ≤ 0.006 µg/mL | 0.05 µg/mL (≈ 0.089 µM) | 0.2 µg/mL (≈ 0.356 µM) | ≤ 0.006 µg/mL | 0.1 µg/mL (≈ 0.178 µM) | ≤ 0.006 µg/mL | ≤ 0.006 µg/mL | ≤ 0.006 µg/mL | 1.56 µg/mL (≈ 2.78 µM) | ≤ 0.006 µg/mL | 0.78 µg/mL (≈ 1.39 µM) | ≤ 0.006 µg/mL | 0.39 µg/mL (≈ 0.694 µM) | 50 µg/mL (≈ 89 µM) | 1.56 µg/mL (≈ 2.78 µM) | 0.025 µg/mL (≈ 0.0445 µM) | Nc1nc(C(=NOCF)C(=O)NC2C(=O)N3C(C(=O)[O-])=C(C[n+]4ccn5c(CO)ccc5c4)CSC23)cs1 (stereo not drawn) [Ex. 22, 7-β-[(Z)-2-(2-aminothiazol-4-yl)-2-fluoromethoxyiminoacetamido]-3-(6-hydroxymethylpyrrolo[1,2-a]pyrazinium-2-yl)methyl-3-cephem-4-carboxylate]
12.5 µg/mL (≈ 21.3 µM) | 0.012 µg/mL (≈ 0.0204 µM) | 0.78 µg/mL (≈ 1.33 µM) | 0.025 µg/mL (≈ 0.0425 µM) | 0.012 µg/mL (≈ 0.0204 µM) | 0.2 µg/mL (≈ 0.34 µM) | 1.56 µg/mL (≈ 2.65 µM) | 0.025 µg/mL (≈ 0.0425 µM) | 0.39 µg/mL (≈ 0.664 µM) | 0.012 µg/mL (≈ 0.0204 µM) | 0.025 µg/mL (≈ 0.0425 µM) | ≤ 0.006 µg/mL | 6.25 µg/mL (≈ 10.6 µM) | ≤ 0.006 µg/mL | 6.25 µg/mL (≈ 10.6 µM) | 0.012 µg/mL (≈ 0.0204 µM) | 0.78 µg/mL (≈ 1.33 µM) | 100 µg/mL (≈ 170 µM) | 3.13 µg/mL (≈ 5.33 µM) | 0.39 µg/mL (≈ 0.664 µM) | Nc1nc(C(=NOCC(=O)O)C(=O)NC2C(=O)N3C(C(=O)[O-])=C(C[n+]4ccn5c(CO)ccc5c4)CSC23)cs1 (stereo not drawn) [Ex. 23, 7-β-[(Z)-2-(2-aminothiazol-4-yl)-2-carboxymethoxyiminoacetamido]-3-(6-hydroxymethylpyrrolo[1,2-a]pyrazinium-2-yl)methyl-3-cephem-4-carboxylate]
6.25 µg/mL (≈ 10.2 µM) | 0.2 µg/mL (≈ 0.325 µM) | 1.56 µg/mL (≈ 2.53 µM) | 1.56 µg/mL (≈ 2.53 µM) | 0.78 µg/mL (≈ 1.27 µM) | 6.25 µg/mL (≈ 10.2 µM) | 0.39 µg/mL (≈ 0.633 µM) | 0.78 µg/mL (≈ 1.27 µM) | 6.25 µg/mL (≈ 10.2 µM) | 0.39 µg/mL (≈ 0.633 µM) | 3.13 µg/mL (≈ 5.08 µM) | 0.05 µg/mL (≈ 0.0812 µM) | 1.56 µg/mL (≈ 2.53 µM) | 0.39 µg/mL (≈ 0.633 µM) | 3.13 µg/mL (≈ 5.08 µM) | 0.78 µg/mL (≈ 1.27 µM) | 12.5 µg/mL (≈ 20.3 µM) | 100 µg/mL (≈ 162 µM) | 25 µg/mL (≈ 40.6 µM) | 0.39 µg/mL (≈ 0.633 µM) | CC(C)(ON=C(C(=O)NC1C(=O)N2C(C(=O)[O-])=C(C[n+]3ccn4c(CO)ccc4c3)CSC12)c1csc(N)n1)C(=O)O (stereo not drawn) [Ex. 24, 7-β-[(Z)-2-(2-aminothiazol-4-yl)-2-(2-carboxyprop-2-oxyimino)acetamido]-3-(6hydroxymethylpyrrolo[1,2-a]pyrazinium-2-yl)methyl-3-cephem-4-carboxylate]
1.56 µg/mL (≈ 2.88 µM) | 0.025 µg/mL (≈ 0.0462 µM) | 0.39 µg/mL (≈ 0.72 µM) | 0.05 µg/mL (≈ 0.0923 µM) | 0.05 µg/mL (≈ 0.0923 µM) | 0.78 µg/mL (≈ 1.44 µM) | 0.78 µg/mL (≈ 1.44 µM) | 0.05 µg/mL (≈ 0.0923 µM) | 0.39 µg/mL (≈ 0.72 µM) | 0.05 µg/mL (≈ 0.0923 µM) | 0.025 µg/mL (≈ 0.0462 µM) | 0.05 µg/mL (≈ 0.0923 µM) | 3.13 µg/mL (≈ 5.78 µM) | 0.012 µg/mL (≈ 0.0222 µM) | 3.13 µg/mL (≈ 5.78 µM) | 0.05 µg/mL (≈ 0.0923 µM) | 3.13 µg/mL (≈ 5.78 µM) | 25 µg/mL (≈ 46.2 µM) | 12.5 µg/mL (≈ 23.1 µM) | 0.1 µg/mL (≈ 0.185 µM) | CON=C(C(=O)NC1C(=O)N2C(C(=O)[O-])=C(C[n+]3ccn4c(C=O)ccc4c3)CSC12)c1csc(N)n1 (stereo not drawn) [Ex. 25, 7-β-[(Z)-2-(2-aminothiazol-4-yl)-2-methoxyiminoacetamido]-3-(6-formylpyrrolo[1,2-a]pyrazinium-2-yl)methyl-3-cephem-4-carboxylate]
